Laboratory results: patent US20240293405A1, “(1H-PYRROLO[2,3-B]PYRIDIN-1-YL)PYRIMIDIN-2-YL-AMINO-PHENYL-ACRYLAMIDE INHIBITORS OF EGFR FOR USE IN THE TREATMENT OF BRAIN TUMORS” (Dana-Farber Cancer Institute, Inc., priority 2021, published 2024)
Read-outs that look alike come from different tables or passages of the source.

Assays:
[1] = Body weight over the course of treatment in mice; assay type: in vivo; conditions: 25 mg/kg; study endpoint reached within one month
P-gp, Bcrp = conditions: previously published report; cited from earlier work
NSCLC brain metastases = NSCLC brain metastases in SCID mice; conditions: 25 mg/kg; […]
U251-EGFRvIII cells = assay: Viability/proliferation of U251-EGFRvIII cells; assay type: cell-based, human
Method: (§1) Cells were seeded in 96-well plates at a density of 1,000 cells per well and treated with two-fold serial dilutions of compounds with a starting concentration of 20 μM. Cell viability was assessed after three days of treatment by CellTiter-Glo (Promega). Curve fitting analysis and IC50 value determination were performed using GraphPad Prism 8.
In parallel, the conventional human GBM U251 cell line was used as a surrogate model for both in vitro and in vivo studies. U251 cells were engineered to stably express EGFRvIII (U251-EGFRvIII) via retroviral-mediated gene transfer.

293-EGFRvIII cells = assay: Cell viability of 293-EGFRvIII cells (CellTiter-Glo); assay type: cell-based, human; conditions: Homo sapiens, 72 h, read-out: IC50, viability of 293-EGFRvIII cells
Method: as §1

[2] = tested on: PC-9 cells (EGFR exon 19 deletion); assay: Cell viability assay, PC-9 (CellTiter-Glo); assay type: cell-based; conditions: Homo sapiens, PC-9, read-out: IC50, cell viability
Text: (§2) CellTier-Glo (Promega) assay kit (https://www.promega.com/resources/protocols/technical-bulletins/0/celltiter-glo-luminescentcell-viability-assay-protocol/) was used here.

PDGFRB = PDGFRB (Homo sapiens, UniProt P09619); assay: Kinase binding constant (Kd)
Method: (§3) EGFR amplifications and/or mutations are common in GBM, estimated to occur in over 50% of patients.
(§4) Compound 1 and Compound 2 (major metabolite) were evaluated in a panel of 468 human kinases and disease relevant mutant variants. Compound 1 and Compound 2 bound to few non-mutant kinases at <1% of control. […] While there is some variability between Compound 1 and Compound 2, it is clear that both compounds are very effective at binding to a large panel of mutant kinases. […] Binding constant to wild type EGFR was 4.9 nM.

PDGFRA = PDGFRA (Homo sapiens, UniProt P16234); assay: Kinase binding constant (Kd)
Method: as §3, §4

ALK = ALK (Homo sapiens, UniProt Q9UM73); assay: Kinase binding constant (Kd)
Method: as §3, §4

[3] = tested on: NCI-H1975 cells (EGFR L858R/T790M mutation); assay: Cell viability assay, NCI-H1975 (CellTiter-Glo); assay type: cell-based; conditions: Homo sapiens, NCI-H1975, 72 h, read-out: IC50, cell viability
Text: as §2

PDGFRA, sequence (P16234 24-1089): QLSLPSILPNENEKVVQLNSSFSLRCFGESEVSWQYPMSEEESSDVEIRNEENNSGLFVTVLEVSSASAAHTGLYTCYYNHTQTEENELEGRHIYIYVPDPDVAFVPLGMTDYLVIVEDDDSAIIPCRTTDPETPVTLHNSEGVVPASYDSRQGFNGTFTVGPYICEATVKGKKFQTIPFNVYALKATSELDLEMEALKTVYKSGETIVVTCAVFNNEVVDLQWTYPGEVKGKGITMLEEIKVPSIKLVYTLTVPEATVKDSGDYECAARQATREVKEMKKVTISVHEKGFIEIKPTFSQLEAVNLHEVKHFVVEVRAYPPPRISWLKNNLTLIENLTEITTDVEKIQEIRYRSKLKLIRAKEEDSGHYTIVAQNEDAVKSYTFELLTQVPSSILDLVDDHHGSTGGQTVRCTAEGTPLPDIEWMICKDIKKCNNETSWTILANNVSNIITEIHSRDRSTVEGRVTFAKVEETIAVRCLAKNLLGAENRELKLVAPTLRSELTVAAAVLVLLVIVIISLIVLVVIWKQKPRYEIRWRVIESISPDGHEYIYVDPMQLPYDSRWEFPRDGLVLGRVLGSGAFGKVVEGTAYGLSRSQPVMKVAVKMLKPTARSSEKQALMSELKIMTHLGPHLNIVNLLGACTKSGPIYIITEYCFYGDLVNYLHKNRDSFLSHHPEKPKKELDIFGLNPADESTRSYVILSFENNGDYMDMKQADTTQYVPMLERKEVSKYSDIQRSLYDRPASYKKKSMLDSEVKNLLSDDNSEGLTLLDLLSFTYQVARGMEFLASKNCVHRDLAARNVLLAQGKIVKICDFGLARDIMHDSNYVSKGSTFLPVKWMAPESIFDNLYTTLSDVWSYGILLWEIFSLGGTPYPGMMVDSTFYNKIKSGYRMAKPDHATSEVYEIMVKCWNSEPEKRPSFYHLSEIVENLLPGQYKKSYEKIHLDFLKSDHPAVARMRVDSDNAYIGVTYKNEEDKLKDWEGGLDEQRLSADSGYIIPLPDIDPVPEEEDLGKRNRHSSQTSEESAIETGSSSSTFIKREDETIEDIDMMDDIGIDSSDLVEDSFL
ALK, sequence (Q9UM73 19-1620): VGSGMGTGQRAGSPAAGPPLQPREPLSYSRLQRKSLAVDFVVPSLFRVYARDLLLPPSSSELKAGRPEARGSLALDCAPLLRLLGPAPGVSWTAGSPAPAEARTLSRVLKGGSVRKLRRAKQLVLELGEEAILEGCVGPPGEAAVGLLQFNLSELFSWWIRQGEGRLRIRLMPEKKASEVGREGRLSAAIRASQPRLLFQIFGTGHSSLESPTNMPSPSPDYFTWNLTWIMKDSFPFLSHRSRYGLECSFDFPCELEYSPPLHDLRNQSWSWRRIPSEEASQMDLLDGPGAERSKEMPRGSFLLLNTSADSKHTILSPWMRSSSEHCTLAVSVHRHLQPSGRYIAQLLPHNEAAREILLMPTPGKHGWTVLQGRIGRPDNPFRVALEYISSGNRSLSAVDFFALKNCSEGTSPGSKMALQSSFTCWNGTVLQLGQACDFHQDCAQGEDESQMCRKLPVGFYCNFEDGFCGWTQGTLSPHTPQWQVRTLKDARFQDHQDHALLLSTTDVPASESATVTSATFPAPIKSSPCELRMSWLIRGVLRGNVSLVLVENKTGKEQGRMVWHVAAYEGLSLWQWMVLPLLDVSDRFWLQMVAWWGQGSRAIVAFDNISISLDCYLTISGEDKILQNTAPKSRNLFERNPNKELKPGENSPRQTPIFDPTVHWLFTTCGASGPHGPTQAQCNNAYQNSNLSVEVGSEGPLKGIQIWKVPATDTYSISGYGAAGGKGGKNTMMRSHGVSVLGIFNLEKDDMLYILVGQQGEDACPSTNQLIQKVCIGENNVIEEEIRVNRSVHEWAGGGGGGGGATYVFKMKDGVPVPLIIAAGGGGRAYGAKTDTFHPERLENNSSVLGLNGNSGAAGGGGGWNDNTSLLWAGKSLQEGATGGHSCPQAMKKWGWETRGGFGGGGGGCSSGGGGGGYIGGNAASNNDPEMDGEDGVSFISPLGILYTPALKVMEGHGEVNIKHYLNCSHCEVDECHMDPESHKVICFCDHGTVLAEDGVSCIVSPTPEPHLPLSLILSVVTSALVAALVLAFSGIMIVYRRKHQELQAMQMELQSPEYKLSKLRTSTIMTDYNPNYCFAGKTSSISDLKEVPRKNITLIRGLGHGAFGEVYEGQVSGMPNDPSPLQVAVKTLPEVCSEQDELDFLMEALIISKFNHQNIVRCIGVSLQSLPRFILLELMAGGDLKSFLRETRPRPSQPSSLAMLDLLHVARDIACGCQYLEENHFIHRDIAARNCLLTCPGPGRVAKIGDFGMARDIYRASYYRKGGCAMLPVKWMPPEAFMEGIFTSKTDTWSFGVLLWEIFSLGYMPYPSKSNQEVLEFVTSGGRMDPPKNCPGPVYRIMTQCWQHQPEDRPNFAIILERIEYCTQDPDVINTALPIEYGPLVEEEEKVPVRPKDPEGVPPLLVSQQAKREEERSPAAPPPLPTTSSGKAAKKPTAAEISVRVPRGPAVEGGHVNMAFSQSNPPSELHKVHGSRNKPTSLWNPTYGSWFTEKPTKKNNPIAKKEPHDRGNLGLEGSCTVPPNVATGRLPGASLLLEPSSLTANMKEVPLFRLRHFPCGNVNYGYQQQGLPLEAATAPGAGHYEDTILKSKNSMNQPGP
PDGFRB, sequence (P09619 33-1106): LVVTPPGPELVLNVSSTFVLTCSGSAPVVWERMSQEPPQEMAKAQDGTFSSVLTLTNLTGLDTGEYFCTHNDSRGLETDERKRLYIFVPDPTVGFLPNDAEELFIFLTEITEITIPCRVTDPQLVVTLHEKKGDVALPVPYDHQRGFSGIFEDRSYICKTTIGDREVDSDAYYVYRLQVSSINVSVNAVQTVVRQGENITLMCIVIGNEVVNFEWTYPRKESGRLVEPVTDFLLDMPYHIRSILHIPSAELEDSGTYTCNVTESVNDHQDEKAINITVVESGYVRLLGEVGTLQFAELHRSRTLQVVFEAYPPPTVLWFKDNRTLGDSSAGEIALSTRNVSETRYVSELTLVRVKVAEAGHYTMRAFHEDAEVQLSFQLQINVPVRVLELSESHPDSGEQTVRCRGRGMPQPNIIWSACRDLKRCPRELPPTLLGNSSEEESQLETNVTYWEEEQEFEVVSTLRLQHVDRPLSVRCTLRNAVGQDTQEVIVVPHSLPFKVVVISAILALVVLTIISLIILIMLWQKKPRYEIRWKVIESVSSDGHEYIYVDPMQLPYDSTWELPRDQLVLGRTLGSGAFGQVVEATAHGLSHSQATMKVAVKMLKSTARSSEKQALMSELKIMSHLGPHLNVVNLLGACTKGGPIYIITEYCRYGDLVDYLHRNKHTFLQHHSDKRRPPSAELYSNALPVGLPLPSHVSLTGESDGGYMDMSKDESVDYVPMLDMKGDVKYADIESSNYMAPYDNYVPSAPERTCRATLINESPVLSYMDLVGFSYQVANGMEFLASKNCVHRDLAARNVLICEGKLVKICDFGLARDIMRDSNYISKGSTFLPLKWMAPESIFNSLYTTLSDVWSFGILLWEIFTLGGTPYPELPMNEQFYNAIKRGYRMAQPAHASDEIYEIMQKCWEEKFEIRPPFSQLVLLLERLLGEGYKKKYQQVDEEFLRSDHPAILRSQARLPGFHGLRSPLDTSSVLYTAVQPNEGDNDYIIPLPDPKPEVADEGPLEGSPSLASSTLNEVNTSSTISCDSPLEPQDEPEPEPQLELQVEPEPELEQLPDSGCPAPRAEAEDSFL

## C=CC(=O)Nc1cc(Nc2nccc(-c3cn(C)c4ccccc34)n2)c(OC)cc1N(C)CCN(C)C [Osimertinib, reference compound]
[1]
  body weight over the course of treatment: significant body weight loss
P-gp, Bcrp
  Efflux Liability: P-gp, Bcrp
NSCLC brain metastases
  time at which study endpoint was reached: 4 weeks
U251-EGFRvIII cells; Homo sapiens, read-out: IC50, viability of U251-EGFRvIII cells
  IC50: […]
U251-EGFRvIII cells; Homo sapiens, read-out: IC50 on U251-EGFRvIII cell proliferation
  IC50: 2450 nM
U251-EGFRvIII cells; read-out: IC50, viability of U251-EGFRvIII cells
  IC50: […]
293-EGFRvIII cells
  IC50: 2190 nM
[2]
  IC50: 18.1 nM
PDGFRB
  Kd: 1500 nM
PDGFRA
  Kd: 740 nM
ALK
  Kd: 69 nM
[3]
  IC50: […]
